Results: ChEMBL document CHEMBL6092168, “Identification of novel indolinone derivatives as CTSC inhibitors to treat inflammatory bowel disease by modulating inflammatory factors” (Eur J Med Chem, 2024)
Calls of active or inactive are those of the source. No cut-off for these calls is given here.

What was measured:
[1] = tested on: RAW264.7; test: Anti-inflammatory activity in mouse RAW264.7 cells assessed as inhibition of LPS-induced NO production preincubated for 1 hr followed by LPS addition and measured after 24 hrs by Griess reagent based assay; type: functional, cell-based
[2] = molecular target: Dipeptidyl peptidase 1 (Homo sapiens, UniProt P53634); test: Inhibition of Cathepsin C in human U-937 cells using H-Gly-Arg-AMC as substrate at 10 uM incubated for 5 days by fluorescence based microplate reader analysis relative to control; type: cell-based; settings: time 5.0 day
[3] = molecular target: T1, Cathepsin G (Homo sapiens) (UniProt P08311); test: Inhibition of Cathepsin G in human U-937 cells using N-Suc-Ala-Ala-Pro-Phe-pNA as substrate at 10 uM incubated for 5 days by […] based microplate reader analysis relative to control; type: cell-based; settings: time 5.0 day
T1 sequence (whole entry): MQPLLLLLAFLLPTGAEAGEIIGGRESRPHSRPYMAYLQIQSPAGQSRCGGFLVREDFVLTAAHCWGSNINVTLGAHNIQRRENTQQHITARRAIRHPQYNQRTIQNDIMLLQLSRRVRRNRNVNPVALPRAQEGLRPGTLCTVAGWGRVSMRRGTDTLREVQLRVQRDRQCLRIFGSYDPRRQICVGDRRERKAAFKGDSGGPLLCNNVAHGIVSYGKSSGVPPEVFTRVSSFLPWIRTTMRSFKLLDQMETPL

[4] = molecular target: T2, Myeloblastin (Mus musculus) (UniProt Q61096); test: Induction of proteinase 3 degradation in C57BL/6 mouse bone marrow cells assessed as residual activity at 10 uM incubated for 48 hrs by Western blot analysis relative to control; type: cell-based; settings: Bone marrow cell
T2 sequence (whole entry): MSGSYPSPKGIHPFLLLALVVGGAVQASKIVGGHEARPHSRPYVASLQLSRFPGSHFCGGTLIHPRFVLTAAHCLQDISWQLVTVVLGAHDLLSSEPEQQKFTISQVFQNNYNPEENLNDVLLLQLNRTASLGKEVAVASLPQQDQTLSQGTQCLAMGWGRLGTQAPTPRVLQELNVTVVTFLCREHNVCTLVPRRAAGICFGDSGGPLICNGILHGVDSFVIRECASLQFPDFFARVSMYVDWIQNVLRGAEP

[5] = Tmax in male Sprague-Dawley rat at 10 mg/kg, po measured at 5 to 1440 mins by LC-MS/MS analysis; type: ADME, organism-based; settings: in vivo, time 5-1440 min
[6] = AUC (0 to infinity) in male Sprague-Dawley rat at 10 mg/kg, po measured at 5 to 1440 mins by LC-MS/MS analysis; type: ADME, organism-based; settings: in vivo, time 5-1440 min
[7] = molecular target: T3, Dipeptidyl peptidase 1 (Mus musculus) (UniProt P97821); test: In vivo inhibition of Cathepsin C in C57BL/6 mouse assessed as reduction in cathepsin C activity in bone marrow at 15 mg/kg, po administered once daily for 6 days by fluorescence based microplate reader relative to control; type: functional, organism-based; settings: time 6.0 day
T3 sequence (whole entry): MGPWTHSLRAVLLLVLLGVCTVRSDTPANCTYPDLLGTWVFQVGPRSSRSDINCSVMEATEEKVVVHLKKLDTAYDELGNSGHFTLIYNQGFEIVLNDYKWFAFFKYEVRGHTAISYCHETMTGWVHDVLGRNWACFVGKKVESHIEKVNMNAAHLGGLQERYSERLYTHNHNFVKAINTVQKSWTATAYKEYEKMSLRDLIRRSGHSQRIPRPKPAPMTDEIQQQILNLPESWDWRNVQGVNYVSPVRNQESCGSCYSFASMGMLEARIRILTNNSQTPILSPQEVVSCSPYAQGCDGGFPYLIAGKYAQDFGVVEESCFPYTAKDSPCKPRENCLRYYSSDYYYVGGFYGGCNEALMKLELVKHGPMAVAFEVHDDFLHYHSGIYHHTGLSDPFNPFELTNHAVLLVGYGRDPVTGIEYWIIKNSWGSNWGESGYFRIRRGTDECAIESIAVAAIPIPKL

[8] = molecular target: T3, Dipeptidyl peptidase 1 (Mus musculus); test: In vivo inhibition of Cathepsin C in C57BL/6 mouse assessed as reduction in cathepsin C activity in bone marrow administered orally once daily for 6 days by fluorescence based microplate reader; type: functional, organism-based; settings: dose 5-30 mg/kg, route po, time 6.0 day
[9] = molecular target: T4, Cathepsin G (Mus musculus) (UniProt P28293); test: In vivo inhibition of Cathepsin G in C57BL/6 mouse assessed as reduction in cathepsin G activity in bone marrow at 30 mg/kg, po administered once daily for 6 days by fluorescence based microplate reader relative to control; type: functional, organism-based; settings: time 6.0 day
T4 sequence (whole entry): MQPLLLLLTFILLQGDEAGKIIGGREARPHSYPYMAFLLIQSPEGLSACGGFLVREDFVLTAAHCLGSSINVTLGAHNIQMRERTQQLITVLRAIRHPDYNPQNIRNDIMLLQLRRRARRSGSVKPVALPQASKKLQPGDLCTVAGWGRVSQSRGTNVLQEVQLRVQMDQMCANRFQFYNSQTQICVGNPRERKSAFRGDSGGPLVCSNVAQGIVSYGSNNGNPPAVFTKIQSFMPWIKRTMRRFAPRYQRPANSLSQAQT

[10] = Acute toxicity in ICR mouse assessed as body weight loss at 1500 mg/kg, po administered daily for 7 days; type: organism-based; settings: in vivo, 168 h, time 7 day
[11] = Acute toxicity in ICR mouse assessed as liver pathological change at 1500 mg/kg, po administered daily for 7 days by H and E staining based analysis; type: organism-based; settings: in vivo, 168 h, time 7 day
[12] = Acute toxicity in ICR mouse assessed as lung pathological change at 1500 mg/kg, po administered daily for 7 days by H and E staining based analysis; type: organism-based; settings: in vivo, 168 h, time 7 day
[13] = tested on: Mus musculus; test: Anti-inflammatory activity in DSS-induced ulcerative colitis male C57BL/6 mouse model assessed as reduction in inflammatory cell infiltration in colon at 60 mg/kg administered via gavage for 10 days by H and E staining based analysis; type: functional, organism-based; settings: time 10.0 day
[14] = tested on: Mus musculus; test: Anti-inflammatory activity in DSS-induced ulcerative colitis male C57BL/6 mouse model assessed as reduction in TNF-alpha expression in serum administered via gavage for 10 days by ELISA; type: functional, organism-based; settings: dose 15-60 mg/kg, time 10.0 day
[15] = tested on: Mus musculus; test: Anti-inflammatory activity in DSS-induced ulcerative colitis male C57BL/6 mouse model assessed as reduction in IL-1 beta expression in serum administered via gavage for 10 days by ELISA; type: functional, organism-based; settings: dose 15-60 mg/kg, time 10.0 day
[16] = molecular target: T4, Cathepsin G (Mus musculus); test: Induction of Cathepsin G degradation in C57BL/6 mouse bone marrow cells at 10 uM incubated for 24 hrs by Western blot analysis; type: cell-based; settings: Bone marrow cell
[17] = molecular target: T4, Cathepsin G (Mus musculus); test: In vivo inhibition of Cathepsin G in C57BL/6 mouse assessed as reduction in cathepsin G activity in bone marrow administered orally once daily for 6 days by fluorescence based microplate reader; type: functional, organism-based; settings: dose 5-30 mg/kg, route po, time 6.0 day
[18] = tested on: Mus musculus; test: Anti-inflammatory activity in DSS-induced ulcerative colitis male C57BL/6 mouse model assessed as reduction in neutrophil elastase level in colon at 15 to 30 mg/kg administered via gavage for 10 days; type: functional, organism-based; settings: dose 15-30 mg/kg, time 10.0 day
[19] = tested on: Mus musculus; test: Anti-inflammatory activity in DSS-induced ulcerative colitis male C57BL/6 mouse model assessed as reduction in proteinase 3 level in serum at 15 to 30 mg/kg administered via gavage for 10 days; type: functional, organism-based; settings: dose 15-30 mg/kg, time 10.0 day
[20] = tested on: Mus musculus; test: Anti-inflammatory activity in DSS-induced ulcerative colitis male C57BL/6 mouse model assessed as reduction in cathepsin G level in colon at 15 to 30 mg/kg administered via gavage for 10 days; type: functional, organism-based; settings: dose 15-30 mg/kg, time 10.0 day

Sequence of Dipeptidyl peptidase 1 (P53634 25-134 limits assumed): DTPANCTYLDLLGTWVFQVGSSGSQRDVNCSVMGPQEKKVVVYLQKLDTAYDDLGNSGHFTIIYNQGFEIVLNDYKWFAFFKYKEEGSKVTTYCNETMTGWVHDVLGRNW
Sequence of Dipeptidyl peptidase 1 (P53634 231-394 limits assumed): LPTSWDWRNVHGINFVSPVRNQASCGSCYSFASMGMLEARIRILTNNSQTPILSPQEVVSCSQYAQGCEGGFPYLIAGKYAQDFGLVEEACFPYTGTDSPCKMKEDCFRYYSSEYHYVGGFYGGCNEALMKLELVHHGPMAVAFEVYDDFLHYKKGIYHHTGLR
Sequence of Dipeptidyl peptidase 1 (P53634 395-463 limits assumed): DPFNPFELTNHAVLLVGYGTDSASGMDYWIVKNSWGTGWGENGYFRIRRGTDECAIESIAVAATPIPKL

Work on `O=C1Nc2c(cccc2-c2ccc(NC3CCOCC3)cc2)/C1=C/c1ccnc2ccccc12` yielded an IC50 [1] of 5.5 µM, an inhibition [2] of 14.9% and an inhibition [3] of 17.2%. For the same compound, the Activity [4] was 8.71%, the Tmax [5] was 39.6 min and the AUC [6] was 407.54 ng·h/mL. The inhibition [7] was under 50%, the inhibition [8] was “Dose-dependent-effect” and the inhibition [9] was 55.2%. For the same compound, the Activity [10] was “Non-toxic”, the Activity [11] was “Non-toxic” and the Activity [12] was “Non-toxic”. For the same compound, the Activity [13] was “Active”, the Activity [14] was “Dose-dependent-effect; Significant Reduction Observed In High Dose Group” and the Activity [15] was “Dose-dependent-effect; Significant Reduction Observed In High Dose Group”. The Activity [16] was “Active”, the inhibition [17] was “Dose-dependent-effect” and the Activity [18] was “inactive”. For the same compound, the Activity [19] was “inactive” and the Activity [20] was “inactive”.
